49 compounds from patent publication US10968193B2, “Antidiabetic bicyclic compounds” (Merck Sharp & Dohme Corp., priority 2014, dated 2021) can be followed below.

For this experiment, the target named is T1, human GPR40 (Homo sapiens, UniProt O14842).
T1 construct: expressed in transfected cells; host or cells: HEK cells stably expressing the aequorin reporter
Kind of experiment: Inositol Phosphate Turnover (IP1) Assay 3. Format: cell-based. Particulars: HEK cells stably expressing human GPR40. The gist of the method: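 HEK cells stably expressing human GPR40, plated 16 h before, were treated with compound for 60 min at 37 °C in stimulation buffer. IP1 measured by HTRF (665/620 nm ratio) against an IP1 standard curve; activity normalized to a reference compound, EC50 from 4-parameter fit.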

Molecules are shown by their SMILES.

T1 sequence (O14842 whole entry): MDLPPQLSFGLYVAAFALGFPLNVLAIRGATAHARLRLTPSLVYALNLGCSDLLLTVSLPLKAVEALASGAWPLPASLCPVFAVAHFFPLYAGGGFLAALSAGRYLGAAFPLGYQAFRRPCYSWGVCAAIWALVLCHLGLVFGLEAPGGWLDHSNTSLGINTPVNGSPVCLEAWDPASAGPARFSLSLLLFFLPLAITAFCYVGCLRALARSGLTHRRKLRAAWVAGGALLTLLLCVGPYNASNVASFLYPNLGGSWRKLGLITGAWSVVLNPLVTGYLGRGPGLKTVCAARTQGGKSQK

Consider `COc1cc(-c2ccc(C3CCc4ccc([C@H](C5CC5)[C@H](C)C(=O)O)cc4O3)nc2CN(C(C)C)C(C)C)ccn1` (stereo partly shown) [Example 91], for which the response was half-maximal at 467 nM (EC50).
`COc1cc(-c2ccc(C3CCc4ccc([C@H](C5CCC5)[C@H](C)C(=O)O)cc4O3)cc2CN2CCCC2C)c(F)cn1` (stereo partly shown) [Example 102]: the EC50 (in general, the midpoint of the concentration-response curve) stood at 0.07 nM.
For the compound `COc1cc(-c2ccc(C3CCc4ccc([C@H](C5CCC5)[C@H](C)C(=O)O)cc4O3)cc2CN2CCCC2C)c(F)cn1` (stereo partly shown) [Example 103], the EC50 came to 0.09 nM.
Under `COc1cc(-c2ccc(C3CCc4ccc([C@H](C5CC5)[C@H](C)C(=O)O)cc4O3)c(CN3[C@H](C)CC[C@H]3C)c2)ccn1` (stereo partly shown) [Example 116] stands 104 nM; under `COc1cc(-c2ccc(C3CCc4ccc([C@H](C5CC5)[C@H](C)C(=O)O)cc4O3)c(CN3CCCC[C@@H]3C)c2)ccn1` (stereo partly shown) [Example 121], 0.4 nM.
Compound `COc1cc(-c2ccc(C3CCc4ccc([C@H](C5CC5)[C@H](C)C(=O)O)cc4O3)c(CN3[C@H](C)CC[C@@H]3C)c2)ccn1` (stereo partly shown) [Example 122] displayed an EC50 of 0.7 nM.
Under `COc1cc(-c2ccc(C3CCc4ccc([C@H](C5CC5)[C@H](C)C(=O)O)cc4O3)c(CN3[C@H](C)CC[C@H]3C)c2)c(F)cn1` (stereo partly shown) [Example 127] stands 0.2 nM; under `COc1cc(-c2ccc(C3CCc4ccc([C@H](C5CC5)[C@H](C)C(=O)O)cc4O3)c(CN3CCCC[C@@H]3C)c2)c(F)cn1` (stereo partly shown) [Example 131], 0.09 nM; under `COc1cc(-c2ccc([C@H]3CCc4ccc([C@H](C5CC5)[C@H](C)C(=O)O)cc4O3)cc2CN2C[C@H]3C[C@H]3C2)c(F)cn1` [Example 138], 0.3 nM.
To `CCN(Cc1cc([C@H]2CCc3ccc([C@H](C4CC4)[C@H](C)C(=O)O)cc3O2)ccc1-c1cc(OC)ncc1F)C(C)C` [Example 139] belongs 0.5 nM; to `COc1cc(-c2ccc([C@H]3CCc4ccc([C@H](C5CC5)[C@H](C)C(=O)O)cc4O3)cc2CN(C(C)C)C(C)C)c(F)cn1` [Example 170], 0.07 nM; to `COc1cc(-c2ccc(C3CCc4ccc([C@H](C5CC5)[C@H](C)C(=O)O)cc4O3)cc2CN2CCCC2)ccn1` (stereo partly drawn) [Example 175, (2S, 3R)-3-cyclopropyl-3-(2-(4-(2-methoxypyridin-4-yl)-3-(pyrrolidin-1-ylmethyl)phenyl)-chroman-7-yl)-2-methylpropanoic acid], 53 nM.
Under `COc1cc(-c2ccc([C@H]3CCc4ccc([C@H](C5CC5)[C@H](C)C(=O)O)cc4O3)cc2CN2CCCCC23CC3)ccn1` [Example 176] stands 0.2 nM; under `COc1cc(-c2ccc(C3CCc4ccc([C@H](C5CC5)[C@H](C)C(=O)O)cc4O3)cc2CN2CC3CC3C2)c(C#N)cn1` (stereo partly drawn) [Example 191, (2S, 3R)-3-(2-(3-(3-azabicyclo[3.1.0]hexan-3-ylmethyl)-4-(5-cyano-2-methoxypyridin-4-yl)phenyl)chroman-7-yl)-3-cyclopropyl-2-methylpropanoic acid], 1.9 nM.
Compound `COc1cc(-c2ccc([C@@H]3CCc4ccc([C@H](C5CC5)[C@H](C)C(=O)O)cc4O3)cc2CN(C(C)C)C(C)C)c(F)cn1` [Example 225, Sodium (2S,3R)-3-cyclopropyl-3-((S)-2-(3-((diisopropylamino)methyl)-4-(5-fluoro-2-methoxypyridin-4-yl)phenyl)chroman-7-yl)-2-methylpropanoate] displayed an EC50 of 0.07 nM.
The compound `COc1cc(-c2ccc([C@@H]3CCc4ccc([C@H](C5CC5)[C@H](C)C(=O)O)cc4O3)cc2CN(C)C(C)(C)C)c(F)cn1` [Example 226, Sodium (2S,3R)-3-((S)-2-(3-((tert-butyl(methyl)amino)methyl)-4-(5-fluoro-2-methoxypyridin-4-yl)phenyl)chroman-7-yl)-3-cyclopropyl-2-methylpropanoate] returned an EC50 of 1.1 nM.
Compound `COc1cc(-c2ccc(C3CCc4ccc([C@H](C5CC5)[C@@H](C)C(=O)O)cc4O3)cc2CN(C)C(C)(C)C)c(F)cn1` (stereo partly shown) [Example 227] had an EC50 of 14 nM.
Under `CCN(Cc1cc(C2CCc3ccc([C@H](C4CC4)[C@H](C)C(=O)O)cc3O2)ccc1-c1cc(OC)ncc1F)C(C)(C)C` (stereo partly shown) [Example 228] stands 0.12 nM.
To `COc1cc(-c2ccc(C3CCc4ccc([C@H](C5CC5)[C@H](C)C(=O)O)cc4O3)cc2CN(C(C)C)C(C)(C)C)c(F)cn1` (stereo partly shown) [Example 229] belongs 0.07 nM; to `COc1cc(-c2ccc(C3CCc4ccc([C@H](C5CC5)[C@H](C)C(=O)O)cc4O3)cc2CN2C(C)(C)CCCC2(C)C)c(F)cn1` (stereo partly shown) [Example 230], 0.09 nM.
Compound `COc1cc(-c2ccc(C3CCc4ccc([C@H](C5CC5)[C@H](C)C(=O)O)cc4O3)cc2CN2[C@@H](C)CCC[C@@H]2C)c(F)cn1` (stereo partly shown) [Example 231] returned an EC50 of 0.16 nM.
To `COc1cc(-c2ccc([C@@H]3CCc4ccc([C@H](C5CC5)[C@H](C)C(=O)O)cc4O3)cc2CNC(C)C)c(F)cn1` [Example 232] belongs 36 nM.
`COc1cc(-c2ccc(C3CCc4ccc([C@H](C5CC5)[C@H](C)C(=O)O)cc4O3)cc2CNC(C)(C)C)c(F)cn1` (stereo partly shown) [Example 233] came in with an EC50 of 42 nM.
To `COc1cc(-c2ccc(C3CCc4ccc([C@H](C5CC5)[C@H](C)C(=O)O)cc4O3)cc2CN(C)C(C)(C)C)ccn1` (stereo partly shown) [Example 234] belongs 21 nM.
To `CCN(Cc1cc(C2CCc3ccc([C@H](C4CC4)[C@H](C)C(=O)O)cc3O2)ccc1-c1ccnc(OC)c1)C(C)(C)C` (stereo partly shown) [Example 236] belongs 1.3 nM; to `COc1cc(-c2ccc(C3CCc4ccc([C@H](C5CC5)[C@H](C)C(=O)O)cc4O3)cc2CN(C(C)C)C(C)(C)C)ccn1` (stereo partly shown) [Example 237], 0.17 nM; to `COc1cc(-c2ccc(C3CCc4ccc([C@H](C5CC5)[C@H](C)C(=O)O)cc4O3)cc2CN2C(C)(C)CCCC2(C)C)ccn1` (stereo partly shown) [Example 238], 0.14 nM.
`COc1cc(-c2ccc(C3CCc4ccc([C@H](C5CC5)[C@H](C)C(=O)O)cc4O3)cc2CN2[C@H](C)CCC[C@@H]2C)ccn1` (stereo partly shown) [Example 239] showed an EC50 of 1.1 nM.
Compound `COc1cc(-c2ccc(C3CCc4ccc([C@H](C5CC5)[C@H](C)C(=O)O)cc4O3)cc2CN2[C@H](C)CCC[C@H]2C)ccn1` (stereo partly shown) [Example 240] had an EC50 of 1.4 nM.
Under `COc1cc(-c2ccc(C3CCc4ccc([C@H](C5CC5)[C@H](C)C(=O)O)cc4O3)cc2CN2[C@@H](C)CCC[C@@H]2C)ccn1` (stereo partly shown) [Example 241] stands 1.1 nM; under `COc1cc(-c2ccc(C3CCc4ccc([C@H](C5CC5)[C@H](C)C(=O)O)cc4O3)cc2CN2CCCCC2(C)C)ccn1` (stereo partly shown) [Example 242], 3.1 nM; under `COc1cc(-c2ccc(C3CCc4ccc([C@H](C5CC5)[C@H](C)C(=O)O)cc4O3)cc2CNC(C)C)ccn1` (stereo partly shown) [Example 243], 810 nM.
Consider `CCN(C)C(C)c1cc(C2CCc3ccc([C@H](C4CC4)[C@@H](C)C(=O)O)cc3O2)ccc1-c1cc(OC)ncc1F` (stereo partly shown) [Example 246], for which the EC50 was determined as 2.2 nM.
Regarding `COc1cc(-c2ccc(C3CCc4ccc([C@H](C5CC5)[C@H](C)C(=O)O)cc4O3)cc2C(C)N2CCCC2)ccn1` (stereo partly shown) [Example 249], it took 14.2 nM to reach a half-maximal effect (EC50).
Under `COc1cc(-c2ccc([C@@H]3CCc4ccc([C@H](C5CC5)[C@H](C)C(=O)O)cc4O3)cc2CN2CC3CC3C2)c(F)cn1` (stereo partly drawn) [Example 250, Sodium (2S,3R)-3-((2S)-2-(3-((3-azabicyclo[3.1.0]hexan-3-yl)methyl)-4-(5-fluoro-2-methoxypyridin-4-yl)phenyl)chroman-7-yl)-3-cyclopropyl-2-methylpropanoate] stands 0.19 nM; under `COc1cc(-c2ccc(C3CCc4ccc([C@H](C5CC5)[C@H](C)C(=O)O)cc4O3)cc2CN2[C@H](C)CC[C@@H]2C)c(F)cn1` (stereo partly shown) [Example 251], 0.3 nM.
To `COc1cc(-c2ccc(C3CCc4ccc([C@H](C5CC5)[C@H](C)C(=O)O)cc4O3)cc2CN2CCC3CC32)c(F)cn1` (stereo partly shown) [Example 252] belongs 0.7 nM.
Consider `CCN(C)Cc1cc(C2CCc3ccc([C@H](C4CC4)[C@H](C)C(=O)O)cc3O2)ccc1-c1cc(OC)ncc1F` (stereo partly shown) [Example 253], for which it took 0.9 nM to reach a half-maximal effect (EC50).
Consider `COc1cc(-c2ccc(C3CCc4ccc([C@H](C5CC5)[C@H](C)C(=O)O)cc4O3)cc2CN(C)C(C)C)c(F)cn1` (stereo partly shown) [Example 254], for which the EC50 was 1 nM.
To `CCN(Cc1cc(C2CCc3ccc([C@H](C4CC4)[C@H](C)C(=O)O)cc3O2)ccc1-c1cc(OC)ncc1F)C(C)C` (stereo partly shown) [Example 255] belongs 0.3 nM.
In the case of `COc1cc(-c2ccc(C3CCc4ccc([C@H](C5CC5)[C@H](C)C(=O)O)cc4O3)cc2CN2[C@H](C)CCC[C@H]2C)c(F)cn1` (stereo partly shown) [Example 257], the EC50 is 0.4 nM.
On to `COc1cc(-c2ccc(C3CCc4ccc([C@H](C5CC5)[C@H](C)C(=O)O)cc4O3)cc2CN2[C@H](C)CCC[C@@H]2C)c(F)cn1` (stereo partly shown) [Example 259], for which the EC50 came to 0.2 nM.
`COc1cc(-c2ccc(C3CCc4ccc([C@H](C5CC5)[C@H](C)C(=O)O)cc4O3)cc2CN2CCCC3(CC3)C2)c(F)cn1` (stereo partly shown) [Example 260] showed an EC50 of 0.9 nM.
With `COc1cc(-c2ccc(C3CCc4ccc([C@H](C5CC5)[C@H](C)C(=O)O)cc4O3)cc2CN2CCC3(CC2)CC3)c(F)cn1` (stereo partly shown) [Example 261], the EC50 was 0.6 nM.
In the case of `COc1cc(-c2ccc(C3CCc4ccc([C@H](C5CC5)[C@H](C)C(=O)O)cc4O3)cc2CN2CCCCC23CCC3)c(F)cn1` (stereo partly shown) [Example 262], the concentration for a half-maximal effect (EC50) turned out to be 0.2 nM.
In turn, `COc1cc(-c2ccc(C3CCc4ccc([C@H](C5CC5)[C@H](C)C(=O)O)cc4O3)cc2CN2CCC3(CC3)C2)c(F)cn1` (stereo partly shown) [Example 263] registered an EC50 of 0.8 nM.
`COc1cc(-c2ccc(C3CCc4ccc([C@H](C5CC5)[C@H](C)C(=O)O)cc4O3)cc2CN2CCCC23CCC3)c(F)cn1` (stereo partly shown) [Example 264] came in with an EC50 of 0.2 nM.
Under `COc1cc(-c2ccc(C3CCc4ccc([C@H](C5CC5)[C@H](C)C(=O)O)cc4O3)cc2CN2CCCC23COC3)c(F)cn1` (stereo partly shown) [Example 265] stands 0.2 nM.
Compound `COc1cc(-c2ccc(C3CCc4ccc([C@H](C5CC5)[C@H](C)C(=O)O)cc4O3)cc2CN2CCC(C)(C)C2)c(F)cn1` (stereo partly shown) [Example 266] showed an EC50 of 0.1 nM.
